The values that follow come from patent US9815851B2, “Pyrrolo carboxamides as modulators of orphan nuclear receptor RAR-related orphan receptor-gamma (RORγ, NR1F3) activity and for the treatment of chronic inflammatory and autoimmune diseases” (PHENEX PHARMACEUTICALS AG, priority 2011, dated 2017).

Where two headings read alike, the source gives them in different places. A value given as a limit tells only on which side of the number the result lay.

For test [1], the target named is T1, RORγ (UniProt P51449).
T1 sequence (P51449 1-518): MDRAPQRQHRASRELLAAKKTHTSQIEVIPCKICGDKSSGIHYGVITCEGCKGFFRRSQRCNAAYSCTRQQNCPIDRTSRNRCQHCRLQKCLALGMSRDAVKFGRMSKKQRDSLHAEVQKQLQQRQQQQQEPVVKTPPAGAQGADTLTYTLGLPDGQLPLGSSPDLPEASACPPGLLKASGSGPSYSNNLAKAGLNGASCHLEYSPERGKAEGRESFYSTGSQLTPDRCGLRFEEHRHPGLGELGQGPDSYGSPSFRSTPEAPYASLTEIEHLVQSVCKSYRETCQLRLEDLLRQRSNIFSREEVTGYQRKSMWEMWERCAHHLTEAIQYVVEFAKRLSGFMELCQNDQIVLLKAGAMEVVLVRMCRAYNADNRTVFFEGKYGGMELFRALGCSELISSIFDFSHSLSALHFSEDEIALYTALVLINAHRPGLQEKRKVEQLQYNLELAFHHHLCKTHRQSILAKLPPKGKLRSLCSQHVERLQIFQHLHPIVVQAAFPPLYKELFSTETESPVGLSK
Briefly: RORγ Gal4 Reporter Gene Assay in 293T cells (firefly and renilla luciferase). The class given is cell-based, human.

Test [2] addresses T2, RORγ ligand binding domain (LBD) (Homo sapiens, UniProt P51449).
T2 construct: made in house; host or cells: E. coli BL-21 (BL3), vector pDEST15
T2 sequence (P51449 269-508 limits assumed): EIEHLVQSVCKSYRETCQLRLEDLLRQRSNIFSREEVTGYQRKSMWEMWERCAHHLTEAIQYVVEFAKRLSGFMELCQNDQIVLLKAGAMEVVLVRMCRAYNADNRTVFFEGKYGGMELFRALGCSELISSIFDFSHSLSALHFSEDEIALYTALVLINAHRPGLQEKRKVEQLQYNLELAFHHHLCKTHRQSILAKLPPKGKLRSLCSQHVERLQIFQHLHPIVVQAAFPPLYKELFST
Kind of test: TR-FRET Activity Assay (ligand sensing, RORγ-LBD / coactivator peptide interaction, LANCE). The class given is biochemical. A general note: TR-FRET usually uses a lanthanide donor and a delayed reading to cut background.

Setting [3] is: second value of the cell, Gal4 reporter gene assay in 293T cells, firefly luciferase.
[4] abbreviates: third value of the cell, Gal4 reporter gene assay in 293T cells, renilla normalised luciferase.
Setting [5] is: first value of the cell FRET/FF/REN, TR-FRET activity assay, read-out: pIC50 (FRET) (converted).

`Cc1c(C(=O)NCC2(C(N)=O)CCOCC2)cc(-c2ccc(S(=O)(=O)NC(C)(C)C)c(C(F)(F)F)c2)n1CC1CCCCC1` [17/203]: the “pIC50 (FF)” value in test [1] (setting [3]) turned out to be 7.8. The “pIC50 (REN)” value in test [1] (setting [4]) came to 7.8. The IC50 in test [2] (setting [5]) is 501 nM.
As to `Cc1c(C(=O)NCCC(=O)O)cc(-c2cc(C(C)(C)C)c3c(c2)C2(CCO3)CC2)n1CC1CCCCC1` [1/90], the “pIC50 (FF)” value in test [1] (setting [3]) is listed as 7.0. Besides, the “pIC50 (REN)” value in test [1] (setting [4]) was found to be 6.9. The IC50 in test [2] (setting [5]) is 2000 nM.
The corresponding values for `Cc1c(C(=O)NCC(C)(C)O)cc(-c2ccc(S(=O)(=O)NC(C)(C)C)c3ccccc23)n1CC1CCCCC1` [17/264] are 7.9, 7.7 and 631 nM.
On the same counts, the results for `Cc1c(C(=O)N[C@H]2C[C@H](C(=O)O)C2)cc(-c2cc(OC(F)(F)F)cc(C3(C)CC3)c2)n1CC1CCCCC1` [17/350] are 7.7, 7.7 and 1000 nM.
The corresponding values for `Cc1c(C(=O)N[C@H]2C[C@H](C(=O)O)C2)cc(-c2cc(C(=O)NC(C)(C)C)cc3ccccc23)n1CC1CCCCC1` [17/189] are 6.3, 6.3 and 5010 nM.
With `Cc1c(C(=O)NC2CCOCC2)cc(-c2ccc(S(=O)(=O)NC(C)(C)C)c(C#N)c2)n1CC1CCCCC1` [17/158], the “pIC50 (FF)” value in test [1] (setting [3]) is on record as 6.1. The “pIC50 (REN)” value in test [1] (setting [4]) was 6.2. For the same compound, in test [2] (setting [5]), the IC50 is 794 nM.
On the same counts, the results for `Cc1c(C(=O)NCC2(O)COC2)cc(-c2cc(C(C)(C)C)c3c(c2)C2(CCO3)CC2)n1CC1CCCCC1` [17/36] are 6.9, 6.9 and 794 nM.
The corresponding values for `CNS(=O)(=O)c1ccc(-c2cc(C(=O)NC3CCOCC3)c(C)n2CC2CCCCC2)cc1C(F)(F)F` [17/110] are 6.3, 6.5 and 2000 nM.
The corresponding values for `Cc1c(C(=O)NCC(C)(C)C(N)=O)cc(-c2ccc(S(=O)(=O)NC(C)(C)C)c(C(C)(C)C)c2)n1CC1CCCCC1` [1/125] are 7.4, 7.4 and 794 nM.
`Cc1c(C(=O)N2CCCC(C)(C(=O)O)C2)cc(-c2ccc(S(=O)(=O)NC(C)(C)C)c(C(F)(F)F)c2)n1CC1CCCCC1` (stereo not drawn) [17/225]: in test [1] (setting [3]), the “pIC50 (FF)” value is listed as 7.6. Also, the “pIC50 (REN)” value in test [1] (setting [4]) amounted to 7.6. Further, the IC50 in test [2] (setting [5]) is 794 nM.
For the compound `Cc1c(C(=O)N[C@H]2C[C@H](C(=O)O)C2)cc(-c2cc(OC(F)(F)F)cc(C(=O)NC(C)(C)C)c2)n1CC1CCCCC1` [17/351], the “pIC50 (FF)” value in test [1] (setting [3]) is on record as 6.8. The “pIC50 (REN)” value in test [1] (setting [4]) is 6.9. Also, in test [2] (setting [5]), the IC50 is 2000 nM.
Take `Cc1c(C(=O)N[C@H]2C[C@H](C(=O)O)C2)cc(-c2cc(C(C)(C)C)cc(C(=O)NC(C)(C)C)c2Cl)n1CC1CCCCC1` [17/368]: the “pIC50 (FF)” value in test [1] (setting [3]) worked out at 6.4. Further, in test [1] (setting [4]), the “pIC50 (REN)” value stood at 6.2. The IC50 in test [2] (setting [5]) is 7940 nM.
On the same counts, the results for `CC(C)(C)NS(=O)(=O)c1ccc(-c2cc(C(=O)N[C@H]3C[C@H](C(=O)O)C3)c(F)n2CC2CCCCC2)c2ccccc12` [20/8] are 7.0, 7.0 and 1000 nM.
The corresponding values for `COC(C)(c1cc(-c2cc(C(=O)NC3CCOCC3)c(C)n2CC2CCCCC2)cc(C(C)(C)C)c1)C(F)(F)F` (stereo not drawn) [17/186] are 6.9, 7.1 and 398 nM.
On the same counts, the results for `Cc1c(C(=O)NCC(C)(C)O)cc(-c2ccc(S(=O)(=O)NC(C)(C)C)c(C(C)(C)C)c2)n1CC1CCCCC1` [9/8] are 7.0, 7.1 and 631 nM.
With `Cc1c(C(=O)NCC(C)(C)C(=O)O)cc(-c2ccc(S(=O)(=O)NC(C)(C)C)c(C(F)F)c2)n1CC1CCCCC1` [17/127], the “pIC50 (FF)” value in test [1] (setting [3]) turned out to be 7.1. In addition, the “pIC50 (REN)” value in test [1] (setting [4]) is given as 7.2. For the same compound, the IC50 in test [2] (setting [5]) is 316 nM.
With `COCC1(CNC(=O)c2cc(-c3cc(C(C)(C)C)cc(C4(C)CC4)c3)n(CC3CCCCC3)c2C)COC1` [17/47], in test [1], the “pIC50 (FF)” value was 6.7/7.3/7.4 and the “pIC50 (REN)” value was 6.7/7.3/7.4. Moreover, the IC50 in test [2] was 200 nM.
Take `Cc1c(C(=O)N[C@H]2C[C@H](C(=O)O)C2)cc(-c2cc(C(F)(F)F)c3c(c2)C(C)(C)C(=O)N3C)n1CC1CCCCC1` [17/149]: the “pIC50 (FF)” value in test [1] (setting [3]) is listed as 6.6. In test [1] (setting [4]), the “pIC50 (REN)” value came to 6.6. In addition, the IC50 in test [2] (setting [5]) is 1260 nM.
For `Cc1c(C(=O)N[C@H]2CCCOC2)cc(-c2ccc(S(=O)(=O)NC(C)(C)C)c(C(F)(F)F)c2)n1CC1CCCCC1` [17/139], in test [1] (setting [3]), the “pIC50 (FF)” value is listed as 7.2. Besides, the “pIC50 (REN)” value in test [1] (setting [4]) was 7.4. In addition, the IC50 in test [2] (setting [5]) is 158 nM.
Take `Cc1c(C(=O)NCCC(C)(C)C(=O)O)cc(-c2ccc(S(=O)(=O)NC(C)(C)C)c(C(C)(C)C)c2)n1CC1CCCCC1` [17/163]: in test [1] (setting [3]), the “pIC50 (FF)” value was 7.0. In addition, the “pIC50 (REN)” value in test [1] (setting [4]) is on record as 7.2. In test [2] (setting [5]), the IC50 was 1580 nM.
For the compound `Cc1c(C(=O)NCC2(O)CCS(=O)(=O)CC2)cc(-c2ccc(S(=O)(=O)NC(C)(C)C)c3ccccc23)n1CC1CCCCC1` [17/268], the “pIC50 (FF)” value in test [1] (setting [3]) was found to be 7.7. Besides, the “pIC50 (REN)” value in test [1] (setting [4]) is on record as 7.8. Moreover, in test [2] (setting [5]), the IC50 was 794 nM.
With `Cc1c(C(=O)NC2COC2)cc(-c2cc(OCC(C)C)nc(C(C)(C)C)c2)n1CC1CCCCC1` [1/121], in test [1], the “pIC50 (FF)” value was 6.9/7.0/7.2 and the “pIC50 (REN)” value is reported as 6.9/7.0/7.2. For the same compound, in test [2], the IC50 is 126 nM.
Consider `Cc1c(C(=O)NC2CCOCC2)cc(-c2ccc(C(=O)NCC(F)(F)F)c(C(C)(C)C)c2)n1CC1CCCCC1` [6/2], for which, in test [1] (setting [3]), the “pIC50 (FF)” value came to 6.5. Also, in test [1] (setting [4]), the “pIC50 (REN)” value was 6.4. The IC50 in test [2] (setting [5]) was 3160 nM.
For `Cc1c(C(=O)NC2COC2)cc(-c2cc(C(=O)NC(C)(C)C)nc(C(C)(C)C)c2)n1CC1CCCCC1` [Example 6, N,6-Di-tert-butyl-4-(1-(cyclohexylmethyl)-5-methyl-4-(oxetan-3-ylcarbamoyl)-1H-pyrrol-2-yl)picolinamide], in test [1], the “pIC50 (FF)” value is on record as 6.2/6.3/6.4 and the “pIC50 (REN)” value is 6.2/6.3/6.4. This compound also gave an IC50 in test [2] of 631 nM.
In the case of `Cc1c(C(=O)NC2CCOCC2)cc(-c2ccc(S(=O)(=O)NC(C)(C)CCF)c(C(F)(F)F)c2)n1CC1CCCCC1` [18/2], in test [1] (setting [3]), the “pIC50 (FF)” value was determined as 8.0. Further, the “pIC50 (REN)” value in test [1] (setting [4]) is 8.2. For the same compound, the IC50 in test [2] (setting [5]) was 251 nM.
On the same counts, the results for `Cc1c(C(=O)NC2CCOCC2)cc(-c2cc(C(C)(C)O)c3c(c2)C2(CCO3)CC2)n1CC1CCCCC1` [Example 31, 1-(Cyclohexylmethyl)-5-(8-(2-hydroxypropan-2-yl)spiro[chroman-4,1′-cyclopropan]-6-yl)-2-methyl-N-(tetrahydro-2H-pyran-4-yl)-1H-pyrrole-3-carboxamide] are 6.9, 6.9 and 1260 nM.
On the same counts, the results for `CNC(=O)C1(CNC(=O)c2cc(-c3ccc(S(=O)(=O)NC(C)(C)C)c(C(F)(F)F)c3)n(CC3CCCCC3)c2C)CCOCC1` [17/205] are 6.9, 7.0 and 794 nM.
For the compound `Cc1c(C(N)=O)cc(-c2cccc(C(O)(C(F)(F)F)C(F)(F)F)c2)n1CC1CCCCC1` [1/47], the “pIC50 (FF)” value in test [1] (setting [3]) is less than 4.7. Moreover, the “pIC50 (REN)” value in test [1] (setting [4]) is on record as less than 4.7. In addition, the IC50 in test [2] (setting [5]) is 3980 nM.
For `Cc1c(C(=O)NC2CCOCC2)cc(-c2ccc(S(=O)(=O)NC(C)(C)C(F)(F)F)c(C(F)(F)F)c2)n1CC1CCCCC1` [17/160], in test [1], the “pIC50 (FF)” value is given as 6.7/7.8/8.0 and the “pIC50 (REN)” value is recorded as 6.7/7.8/8.0. For the same compound, in test [2], the IC50 was 200 nM.
For the compound `Cc1c(C(=O)NC2CCOCC2)cc(-c2cc(F)c(S(=O)(=O)NC(C)(C)C)c(C(F)(F)F)c2)n1CC1CCCCC1` [17/229], the “pIC50 (FF)” value in test [1] (setting [3]) is listed as 7.2. In test [1] (setting [4]), the “pIC50 (REN)” value worked out at 7.3. For the same compound, the IC50 in test [2] (setting [5]) is 631 nM.
The corresponding values for `Cc1c(C(=O)NC2CCOCC2)cc(-c2ccc(S(N)(=O)=O)c(C(F)(F)F)c2)n1CC1CCCCC1` [Example 19, 1-(Cyclohexylmethyl)-2-methyl-5-(4-sulfamoyl-3-(trifluoromethyl)phenyl)-N-(tetrahydro-2H-pyran-4-yl)-1H-pyrrole-3-carboxamide] are 6.6, 6.4 and 12600 nM.
On the same counts, the results for `CC(C)(C)NS(=O)(=O)c1ccc(-c2cc(C(=O)NCCC(C)(C)C(=O)O)c(F)n2CC2CCCCC2)c2ccccc12` [20/9] are 7.8, 7.6 and 1260 nM.
